Reference: PubChem BioAssay (NCI)
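Briefly, cells in 96-well plates were exposed to five compound concentrations for 48 h, and endpoints were estimated by linear interpolation. GI50: concentration for 50% inhibition of growth. At the TGI there is no net growth.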

Key:
Experiment in all cases: NCI tumour cell line growth inhibition, 48 h
BT-549 breast = system: BT-549 breast
K-562 leukemia = system: K-562 leukemia
MALME-3M melanoma = system: MALME-3M melanoma
MDA-MB-231 breast = system: MDA-MB-231 breast
NCI-H460 lung = system: NCI-H460 lung
NCI-H522 lung = system: NCI-H522 lung
RPMI-8226 leukemia = system: RPMI-8226 leukemia
TK-10 renal = system: TK-10 renal
SR leukemia = system: SR leukemia

| SMILES | TGI (BT-549 breast) [µM] | TGI (K-562 leukemia) [µM] | TGI (MALME-3M melanoma) [µM] | TGI (MDA-MB-231 breast) [µM] | TGI (NCI-H460 lung) [µM] | TGI (NCI-H522 lung) [µM] | TGI (RPMI-8226 leukemia) [µM] | TGI (TK-10 renal) [µM] | TGI (SR leukemia) [µM] | GI50 (K-562 leukemia) [µM] | GI50 (MALME-3M melanoma) [µM] | GI50 (MDA-MB-231 breast) [µM] | GI50 (NCI-H460 lung) [µM] | GI50 (NCI-H522 lung) [µM] | GI50 (RPMI-8226 leukemia) [µM] | GI50 (SR leukemia) [µM] | GI50 (TK-10 renal) [µM] |
| --- | --- | --- | --- | --- | --- | --- | --- | --- | --- | --- | --- | --- | --- | --- | --- | --- | --- |
| COc1ccc(/C=C2\CN(C)Cc3c2[nH]c(=O)c(C#N)c3-c2ccc(OC)cc2)cc1 | > 100 | > 100 | > 100 | > 100 | > 100 | > 100 | 71.6 | > 100 |  |  |  |  |  |  |  |  |  |
| CC(=O)NC1=C(C)C(=O)c2c(nc3n2CC[C@H]3OC(C)=O)C1=O | 3.01 | > 100 | 3.14 | 2.71 | 9.11 | 3.73 | 7.4 | 13.9 |  |  |  |  |  |  |  |  |  |
| CCS(=O)(=O)c1c2cc(OC)ccc2nc2ccc(OC)cc12 |  | > 100 | > 100 | > 100 | > 100 | > 100 |  | > 100 | > 100 |  |  |  |  |  |  |  |  |
| CCOC(=O)N(C)C1(c2ccccc2)CCN(CCCC(=O)c2ccc(F)cc2)CC1 |  | 72.7 | 30 | > 100 | > 100 | > 100 | 63.8 | > 100 | 45.8 |  |  |  |  |  |  |  |  |
| COc1cc(C(SCc2ccccc2)SCc2ccccc2)ccc1O |  | > 10 | > 10 | > 10 | > 10 | > 10 | > 10 | > 10 | > 10 |  |  |  |  |  |  |  |  |
| O=C(CCCn1ccnc1[N+](=O)[O-])NCCn1ccnc1[N+](=O)[O-] | > 100 | > 100 | > 100 |  | > 100 | > 100 | > 100 | > 100 | > 100 |  |  |  |  |  |  |  |  |
| COC(=O)CCN(CCC(=O)OC)C1CC1 |  | > 100 | > 100 | > 100 | > 100 |  | > 100 | > 100 | > 100 |  |  |  |  |  |  |  |  |
| Cn1ccc(C(=O)NCCCCCNC(=O)c2ccn(C)c(=O)c2O)c(O)c1=O | > 100 |  | > 100 | > 100 | > 100 | > 100 |  | > 100 | > 100 |  |  |  |  |  |  |  |  |
| CCCCCCCCC/C=C1\CC(CO)(COC(=O)c2ccccc2)OC1=O (configuration not stated) | 52.1 | > 100 | 39.5 | 40.4 | 47.6 | 33.4 |  | 44.4 | > 100 |  |  |  |  |  |  |  |  |
| COC1/C=C/C(C)C(C(C)C(OC)C(C)CCC(=O)C(C)C(C/C=C/N(C)C=O)OC)OC(=O)/C=C/C=C(\C)CC(OC)C(OC)C2=CC(=O)O[C@@H](C(C)C(OC)CC(OC)/C=C/C(C)C(O)C1)[C@H]2O (some centres not stated) | 0.544 | > 100 | 0.493 | 0.247 | 0.553 | 0.286 |  | 0.166 | > 31.6 |  |  |  |  |  |  |  |  |
| Cc1cc([N+](=O)[O-])ccc1N=NC(=O)NNc1ccc([N+](=O)[O-])cc1C | 28.3 | 39.9 | 37 |  | 33.4 | 51.7 | 55.2 | 31.5 | 47.6 |  |  |  |  |  |  |  |  |
| COc1ccc2c(c1)-c1oc3ccccc3c(=O)c1CO2 | 96.8 | > 100 | > 100 | 90.8 |  | > 100 | > 100 | > 100 |  |  |  |  |  |  |  |  |  |
| CS(=O)(=O)O.[Ag] | 38 | 4.96 | 3.79 | 41 | 49.5 | 4.52 | 6.29 | 7.74 |  |  |  |  |  |  |  |  |  |
| Nc1nc2cc(CNc3ccc(C(=O)NC(CCC(=O)O)C(=O)O)cc3)ccc2nc1-c1ccccc1 (configuration not stated) | > 10 | > 10 | > 10 | > 10 | > 10 | > 10 | > 10 | > 10 |  |  |  |  |  |  |  |  |  |
| O=C(OCc1ccccc1)N1c2cc([N+](=O)[O-])ccc2C(=O)N2CCC[C@H]2C1O (some centres not stated) | > 100 | > 100 |  | > 100 | > 100 | > 100 | > 100 | > 100 | > 100 |  |  |  |  |  |  |  |  |
| NC(=O)NCCCC(NC(=O)OCCCCCn1ccc(=O)[nH]c1=O)C(=O)O (configuration not stated) | > 100 | > 100 |  | > 100 | > 100 |  | > 100 | > 100 | > 100 |  |  |  |  |  |  |  |  |
| c1ccc(C2=C(c3ccccc3)P(c3ccccc3)C2)cc1 (configuration not stated) |  |  | > 100 | > 100 | > 100 | > 100 |  | > 100 | > 100 |  |  |  |  |  |  |  |  |
| C[C@H](CCC1=NCCN1)[C@H]1CC[C@H]2[C@@H]3CC[C@@H]4C[C@H](O)CC[C@]4(C)[C@H]3C[C@H](O)[C@]12C | 33.1 | 21 | 27.9 | 34 | 31.2 | 19.3 | 30 | 26.9 |  |  |  |  |  |  |  |  |  |
| O=C(O)C1SCCS1 | > 100 | > 100 | > 100 | > 100 | > 100 |  | > 100 | > 100 | > 100 |  |  |  |  |  |  |  |  |

| SMILES | TGI (BT-549 breast) [µM] | TGI (K-562 leukemia) [µM] | TGI (MALME-3M melanoma) [µM] | TGI (MDA-MB-231 breast) [µM] | TGI (NCI-H460 lung) [µM] | TGI (NCI-H522 lung) [µM] | TGI (RPMI-8226 leukemia) [µM] | TGI (TK-10 renal) [µM] | TGI (SR leukemia) [µM] | GI50 (K-562 leukemia) [µM] | GI50 (MALME-3M melanoma) [µM] | GI50 (MDA-MB-231 breast) [µM] | GI50 (NCI-H460 lung) [µM] | GI50 (NCI-H522 lung) [µM] | GI50 (RPMI-8226 leukemia) [µM] | GI50 (SR leukemia) [µM] | GI50 (TK-10 renal) [µM] |
| --- | --- | --- | --- | --- | --- | --- | --- | --- | --- | --- | --- | --- | --- | --- | --- | --- | --- |
| Cc1ccc2nc(Cl)c(/C=N/N3C(=O)/C(=C/c4ccc(N(C)C)cc4)N=C3c3ccccc3)cc2c1 | > 100 | > 100 |  | > 100 | > 100 |  | 65.3 | > 100 | > 100 |  |  |  |  |  |  |  |  |
| COc1ccc2c(c1)CC[C@@H]1[C@@H]2CC[C@]2(C)C(=O)/C(=C/c3cc(OC)c(OC)c(OC)c3)C[C@@H]12 | 63.9 |  | 35 | 42 | > 100 |  | > 100 | 34.2 | > 100 |  |  |  |  |  |  |  |  |
| CC(C)(C)OC(=O)NCC(=O)N1CCCN(C(=O)CNC(=O)OC(C)(C)C)CC1 | > 100 | > 100 | > 100 | > 100 | > 100 | > 100 | > 100 | > 100 |  |  |  |  |  |  |  |  |  |
| CCC(C)C1(O)OC2CC3(C)OC(=CC3=O)/C(C)=C\C3OC(=O)C1(C)C32 (configuration not stated) | 12.8 | > 100 |  | 41.2 | 57.9 | 14.3 | > 100 | 54.2 | 73.5 |  |  |  |  |  |  |  |  |
| Cc1nnc2sc(N/N=C/c3ccccc3)nn12 | > 100 | > 100 | > 100 | > 100 | > 100 | > 100 | > 100 | > 100 |  |  |  |  |  |  |  |  |  |
| O=C(O)/C=C/C(=O)O |  | > 100 | > 100 | > 100 | > 100 | > 100 | > 100 | > 100 | > 100 |  |  |  |  |  |  |  |  |
| NC(=O)CS(=O)CC(N)C(=O)O (configuration not stated) | > 100 | > 100 | > 100 | > 100 | > 100 | > 100 |  | > 100 | > 100 |  |  |  |  |  |  |  |  |
| O=C(/C=C/c1ccccc1O)/C=C/c1ccccc1O | 3.28 | > 100 | 4.27 | 5.29 | 3.08 |  | 0.76 | 3.27 | > 100 |  |  |  |  |  |  |  |  |
| CC(C)(NC1=NCCO1)c1ccccc1 |  |  | > 100 | > 100 | > 100 | > 100 | > 100 | > 100 |  |  |  |  |  |  |  |  |  |
| OCC(O)C(O)C(O)C(/C=N\Nc1ncnc2ccc(Br)cc12)=N/Nc1ncnc2ccc(Br)cc12 (configuration not stated) |  | > 100 | 57 | > 100 |  | 54.9 | > 100 | > 100 | > 100 |  |  |  |  |  |  |  |  |
| C/C=C\C(CC(=O)NCCC1CN(C(=O)c2ccccc2)c2ccccc21)CC(=O)OC (configuration not stated) | > 100 | > 100 | > 100 | > 100 | > 100 | > 100 | > 100 | > 100 |  |  |  |  |  |  |  |  |  |
| Cc1n(CC(=O)c2ccccc2)nc2sc(N)n[n+]12 | > 100 | > 100 | > 100 |  | > 100 | > 100 | > 100 | > 100 |  |  |  |  |  |  |  |  |  |
| OCCO[P+]1(OCCO)n2c3ccc2C(c2ccccc2)=C2C=CC(=N2)C(c2ccccc2)=c2ccc(n21)=C(c1ccccc1)C1=NC(=C3c2ccccc2)C=C1 | 0.305 | 18 |  | 0.275 | 1.04 | 0.2 | 0.0657 | 1.5 | 0.294 |  |  |  |  |  |  |  |  |
| CCOC(=O)C(=Cn1c(=S)[nH]c2ccc([N+](=O)[O-])cc21)C(=O)OCC |  | > 100 | > 100 | > 100 | > 100 | > 100 | > 100 | > 100 | > 100 |  |  |  |  |  |  |  |  |
| COc1ccc(/C=N/n2c(Cc3ccc(Cl)cc3)n[nH]c2=O)c(OC)c1 | 67 | > 100 | > 100 | > 100 | > 100 | 37.4 | > 100 | 52.2 |  |  |  |  |  |  |  |  |  |
| O=C(Nc1cccc(-n2ccc3c(NC(=O)c4ccccc4)nccc32)c1)c1cc(N2CCOCC2)cc(C(F)(F)F)c1 |  | > 100 | > 100 | 0.651 | > 36.9 |  |  | > 95.5 |  | 0.0506 | 1.25 | 0.245 | 0.0374 | 0.0269 | 0.223 | 0.0583 | 0.435 |
| CCCCCCOc1ccc(NC2=C(Cl)C(=O)c3ncccc3C2=O)cc1 | 3.56 | > 10 | 3.77 |  | 3.18 |  |  | > 10 |  |  |  |  |  |  |  |  |  |
| O=C1/C(=C/c2ccco2)NC(=S)N1CN1CCOCC1 |  | > 100 |  | > 100 |  |  | > 100 | > 100 | > 100 |  |  |  |  |  |  |  |  |
